In patent US11130756B2, “[1,2,4]Triazolo[4,3-A]pyridinyl substituted indole compounds” (BRISTOL-MYERS SQUIBB COMPANY, priority 2017, dated 2021):

How the values were obtained:
Assay type in all cases: cell-based
[1] = molecular target: T1, human TLR7 (Homo sapiens, UniProt Q9NYK1); assay: TLR7 inhibition reporter assay (HEK-Blue, SEAP); details: HEK-Blue cells overexpressing human TLR7, gardiquimod 7.5 μM, 22 hour incubation
T1 construct: host or cells: HEK-Blue cells
T1 sequence (Q9NYK1 27-1049): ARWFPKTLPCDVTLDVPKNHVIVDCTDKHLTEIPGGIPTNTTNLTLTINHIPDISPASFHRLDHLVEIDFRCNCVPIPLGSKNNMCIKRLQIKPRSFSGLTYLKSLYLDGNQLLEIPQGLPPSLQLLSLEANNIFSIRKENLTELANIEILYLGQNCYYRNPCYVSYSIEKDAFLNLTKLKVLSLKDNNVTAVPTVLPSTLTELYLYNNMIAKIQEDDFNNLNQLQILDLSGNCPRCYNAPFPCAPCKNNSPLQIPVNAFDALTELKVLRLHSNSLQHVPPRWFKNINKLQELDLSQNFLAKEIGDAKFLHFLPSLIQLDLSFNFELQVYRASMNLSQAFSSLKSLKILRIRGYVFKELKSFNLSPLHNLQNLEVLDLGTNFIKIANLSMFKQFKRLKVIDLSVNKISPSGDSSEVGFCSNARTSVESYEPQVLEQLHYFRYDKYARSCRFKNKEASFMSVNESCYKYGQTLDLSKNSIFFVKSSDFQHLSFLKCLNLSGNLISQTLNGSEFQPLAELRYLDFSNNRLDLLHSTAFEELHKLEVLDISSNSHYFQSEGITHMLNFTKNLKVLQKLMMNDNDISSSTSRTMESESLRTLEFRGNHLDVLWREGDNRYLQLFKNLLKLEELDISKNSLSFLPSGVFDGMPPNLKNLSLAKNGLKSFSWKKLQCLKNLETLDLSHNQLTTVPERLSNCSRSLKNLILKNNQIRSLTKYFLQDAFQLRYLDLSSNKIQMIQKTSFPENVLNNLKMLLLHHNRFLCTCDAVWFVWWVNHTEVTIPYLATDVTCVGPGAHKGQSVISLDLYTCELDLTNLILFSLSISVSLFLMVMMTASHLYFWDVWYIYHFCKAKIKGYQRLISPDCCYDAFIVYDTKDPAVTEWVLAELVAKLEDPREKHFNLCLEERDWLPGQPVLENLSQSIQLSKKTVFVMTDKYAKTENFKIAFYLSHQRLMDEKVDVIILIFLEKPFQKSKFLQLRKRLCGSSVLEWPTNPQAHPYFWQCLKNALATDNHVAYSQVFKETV
Method: (§1) TLR7/8/9 Inhibition Reporter Assays
(§2) HEK-Blue™-cells (Invivogen) overexpressing human TLR7, TLR8 or TLR9 receptors were used for screening inhibitors of these receptors using an inducible SEAP (secreted embryonic alkaline phosphatase) reporter gene under the control of the IFN-β minimal promoter fused to five NF-κB and AP-1-binding sites. Briefly, cells are seeded into Greiner 384 well plates (15000 cells per well for TLR7, 20,000 for TLR8 and 25,000 for TLR9) and then treated with test compounds in DMSO to yield a final dose response concentration range of 0.05 nM-50 μM. After a 30 minute compound pre-treatment at room temperature, the cells are then stimulated with a TLR7 ligand (gardiquimod at a final concentration of 7.5 μM), TLR8 ligand (R848 at a final concentration of 15.9 μM) or TLR9 ligand (ODN2006 at a final concentration of 5 nM) to activate NF-κB and AP-1 which induce the production of SEAP. After a 22 hour incubation at 37° C., 5% CO2, SEAP levels are determined with the addition of HEK-Blue™ Detection reagent (Invivogen), a cell culture medium that allows for detection of SEAP, according to manufacturer's specifications. The percent inhibition is determined as the % reduction in the HEK-Blue signal present in wells treated with agonist plus DMSO alone compared to wells treated with a known inhibitor.

[2] = molecular target: T2, human TLR9 (Homo sapiens, UniProt Q9NR96); assay: TLR9 inhibition reporter assay (HEK-Blue, SEAP); details: HEK-Blue cells overexpressing human TLR9, ODN2006 5 nM, 22 hour incubation
T2 construct: host or cells: HEK-Blue cells
T2 sequence (Q9NR96 26-1032): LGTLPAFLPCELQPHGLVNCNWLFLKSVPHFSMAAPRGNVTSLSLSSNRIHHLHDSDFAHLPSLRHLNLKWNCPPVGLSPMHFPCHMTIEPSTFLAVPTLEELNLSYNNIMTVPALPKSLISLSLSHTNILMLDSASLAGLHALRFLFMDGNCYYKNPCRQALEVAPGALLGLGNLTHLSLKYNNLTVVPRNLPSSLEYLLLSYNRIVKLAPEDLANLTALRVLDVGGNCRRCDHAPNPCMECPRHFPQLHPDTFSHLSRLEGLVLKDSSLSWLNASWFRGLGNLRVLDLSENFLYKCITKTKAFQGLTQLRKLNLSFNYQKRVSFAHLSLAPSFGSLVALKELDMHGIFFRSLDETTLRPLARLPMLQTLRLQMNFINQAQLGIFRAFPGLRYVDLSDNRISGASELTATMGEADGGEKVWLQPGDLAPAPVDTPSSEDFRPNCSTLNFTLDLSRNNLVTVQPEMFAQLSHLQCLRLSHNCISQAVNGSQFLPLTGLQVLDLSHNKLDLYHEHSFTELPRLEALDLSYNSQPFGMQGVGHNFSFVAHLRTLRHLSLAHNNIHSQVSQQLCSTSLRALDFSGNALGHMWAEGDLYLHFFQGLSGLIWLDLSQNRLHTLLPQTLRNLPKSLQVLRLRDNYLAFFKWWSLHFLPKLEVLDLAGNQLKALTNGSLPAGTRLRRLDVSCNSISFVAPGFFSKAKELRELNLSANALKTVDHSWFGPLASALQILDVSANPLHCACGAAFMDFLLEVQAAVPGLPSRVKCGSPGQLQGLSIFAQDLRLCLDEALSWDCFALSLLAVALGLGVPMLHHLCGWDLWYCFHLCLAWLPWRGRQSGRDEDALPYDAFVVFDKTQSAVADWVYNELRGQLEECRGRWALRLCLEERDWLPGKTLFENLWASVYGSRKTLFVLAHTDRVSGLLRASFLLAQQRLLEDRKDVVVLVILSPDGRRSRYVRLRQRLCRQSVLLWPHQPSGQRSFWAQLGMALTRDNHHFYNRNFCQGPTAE
Method: as §1, §2

[3] = molecular target: T3, human TLR8 (Homo sapiens, UniProt Q9NR97); assay: TLR8 inhibition reporter assay (HEK-Blue, SEAP); details: HEK-Blue cells overexpressing human TLR8, R848 15.9 μM, 22 hour incubation
T3 construct: host or cells: HEK-Blue cells
T3 sequence (Q9NR97 27-1041): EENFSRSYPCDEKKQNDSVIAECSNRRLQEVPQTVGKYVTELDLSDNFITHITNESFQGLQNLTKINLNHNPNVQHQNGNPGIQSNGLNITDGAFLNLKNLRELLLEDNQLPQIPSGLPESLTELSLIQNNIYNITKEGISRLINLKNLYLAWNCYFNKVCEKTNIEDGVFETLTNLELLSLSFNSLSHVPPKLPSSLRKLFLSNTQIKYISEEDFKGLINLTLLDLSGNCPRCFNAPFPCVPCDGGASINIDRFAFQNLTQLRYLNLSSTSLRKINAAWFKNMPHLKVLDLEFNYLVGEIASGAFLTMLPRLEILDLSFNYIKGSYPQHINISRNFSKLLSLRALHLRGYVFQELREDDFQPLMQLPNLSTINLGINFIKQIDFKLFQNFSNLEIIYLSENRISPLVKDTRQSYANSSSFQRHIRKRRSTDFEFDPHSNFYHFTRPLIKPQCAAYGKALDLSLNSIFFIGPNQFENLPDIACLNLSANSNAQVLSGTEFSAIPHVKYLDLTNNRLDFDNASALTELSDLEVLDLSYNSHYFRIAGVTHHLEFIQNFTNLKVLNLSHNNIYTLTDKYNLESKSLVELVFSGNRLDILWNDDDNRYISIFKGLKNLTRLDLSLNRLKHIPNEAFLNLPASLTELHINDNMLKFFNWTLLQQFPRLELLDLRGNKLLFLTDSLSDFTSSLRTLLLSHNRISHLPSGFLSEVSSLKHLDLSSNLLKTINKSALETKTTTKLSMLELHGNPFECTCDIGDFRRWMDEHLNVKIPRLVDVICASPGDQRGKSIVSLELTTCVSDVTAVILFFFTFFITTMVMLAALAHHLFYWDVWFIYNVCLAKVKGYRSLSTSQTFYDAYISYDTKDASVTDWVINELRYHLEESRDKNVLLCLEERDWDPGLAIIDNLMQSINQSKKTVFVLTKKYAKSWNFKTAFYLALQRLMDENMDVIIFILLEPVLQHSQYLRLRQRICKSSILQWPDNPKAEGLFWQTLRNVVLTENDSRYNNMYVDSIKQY
Method: as §1, §2

SMILES: Cc1c(-c2[nH]c3ccc(C4C[C@H]5CC[C@@H](C4)N5CC4(C)COC4)cc3c2C(C)C)cn2cnnc2c1C (single isomer, unassigned) [Example 121]
- IC50 [1]: 3.2 nM
- IC50 [2]: 4840 nM
- IC50 [3]: 47.6 nM

SMILES: Cc1c(-c2[nH]c3ccc(C4C[C@H]5CC[C@@H](C4)N5C4COC4)cc3c2C(C)C)cn2cnnc2c1C (single isomer, unassigned) [Example 122]
- IC50 [1]: 2.3 nM
- IC50 [2]: 5940 nM
- IC50 [3]: 98.9 nM

SMILES: Cc1c(-c2[nH]c3ccc(C4C[C@H]5CC[C@@H](C4)N5C4COC4)cc3c2C(C)C)cn2cnnc2c1C (single isomer, unassigned) [Example 123]
- IC50 [1]: 7.6 nM
- IC50 [2]: 8480 nM
- IC50 [3]: 151 nM

SMILES: CC(C)c1c(-c2ccc3nncn3c2)[nH]c2ccc(C3CCNCC3)cc12 [Example 1, 6-(3-isopropyl-5-(piperidin-4-yl)-1H-indol-2-yl)-[1,2,4]triazolo[4,3-a]pyridine]
- IC50 [1]: 22.8 nM
- IC50 [2]: 902 nM
- IC50 [3]: 140 nM

SMILES: Cc1cc(-c2[nH]c3ccc(C4CCNCC4)cc3c2C(C)C)cn2cnnc12 [Example 2, 6-(3-isopropyl-5-(piperidin-4-yl)-1H-indol-2-yl)-8-methyl-[1,2,4]triazolo[4,3-a]pyridine]
- IC50 [1]: 4.8 nM
- IC50 [2]: 528 nM
- IC50 [3]: 12.5 nM

SMILES: Cc1nnc2ccc(-c3[nH]c4ccc(C5CCNCC5)cc4c3C(C)C)cn12 [Example 3, 6-(3-isopropyl-5-(piperidin-4-yl)-1H-indol-2-yl)-3-methyl-[1,2,4]triazolo[4,3-a]pyridine]
- IC50 [1]: 27.1 nM
- IC50 [2]: 340 nM
- IC50 [3]: 40.7 nM

SMILES: Cc1cc2nncn2cc1-c1[nH]c2ccc(C3CCNCC3)cc2c1C(C)C [Example 4, 6-(3-isopropyl-5-(piperidin-4-yl)-1H-indol-2-yl)-7-methyl-[1,2,4]triazolo[4,3-a]pyridine]
- IC50 [1]: 56.7 nM
- IC50 [2]: 2430 nM
- IC50 [3]: 2340 nM

SMILES: Cc1c(-c2[nH]c3ccc(C4CCNCC4)cc3c2C(C)C)ccc2nncn12 [Example 5, 6-(3-isopropyl-5-(piperidin-4-yl)-1H-indol-2-yl)-5-methyl-[1,2,4]triazolo[4,3-a]pyridine]
- IC50 [1]: 154 nM
- IC50 [2]: 1240 nM
- IC50 [3]: 133 nM

SMILES: Cc1cc(-c2[nH]c3ccc(C4CCNCC4)cc3c2C(C)C)cn2c(C)nnc12 [Example 6, 6-(3-isopropyl-5-(piperidin-4-yl)-1H-indol-2-yl)-3,8-dimethyl-[1,2,4]triazolo[4,3-a]pyridine]
- IC50 [1]: 5.2 nM
- IC50 [2]: 486 nM
- IC50 [3]: 18.9 nM

SMILES: COCc1nnc2ccc(-c3[nH]c4ccc(C5CCNCC5)cc4c3C(C)C)cn12 [Example 7, 6-(3-isopropyl-5-(piperidin-4-yl)-1H-indol-2-yl)-3-(methoxymethyl)-[1,2,4]triazolo[4,3-a]pyridine]
- IC50 [1]: 156 nM
- IC50 [2]: 3230 nM
- IC50 [3]: 1230 nM

SMILES: Cc1c(-c2[nH]c3ccc(C4CCNCC4)cc3c2C(C)C)cn2cnnc2c1C [Example 8, 6-(3-isopropyl-5-(piperidin-4-yl)-1H-indol-2-yl)-7,8-dimethyl-[1,2,4]triazolo[4,3-a] pyridine]
- IC50 [1]: 5.2 nM
- IC50 [2]: 1880 nM
- IC50 [3]: 29.6 nM

SMILES: Cc1cc(-c2[nH]c3ccc(C4CCNCC4)cc3c2C(C)C)c(C)n2cnnc12 [Example 9, 6-(3-isopropyl-5-(piperidin-4-yl)-1H-indol-2-yl)-5,8-dimethyl-[1,2,4] triazolo[4,3-a]pyridine]
- IC50 [1]: 31 nM
- IC50 [2]: 746 nM
- IC50 [3]: 11.5 nM

SMILES: Cc1c(-c2[nH]c3ccc(C4CCNCC4)cc3c2C(C)C)cn2cnnc2c1Cl [Example 10, 8-chloro-6-(3-isopropyl-5-(piperidin-4-yl)-1H-indol-2-yl)-7-methyl-[1,2,4]triazolo[4,3-a]pyridine]
- IC50 [1]: 4.6 nM
- IC50 [2]: 3120 nM
- IC50 [3]: 107 nM

SMILES: COc1cc(-c2[nH]c3ccc(C4CCNCC4)cc3c2C(C)C)cn2cnnc12 [Example 11, 6-(3-isopropyl-5-(piperidin-4-yl)-1H-indol-2-yl)-8-methoxy-[1,2,4]triazolo[4,3-a]pyridine]
- IC50 [1]: 6.2 nM
- IC50 [2]: 563 nM
- IC50 [3]: 74 nM

SMILES: Cc1cc(-c2[nH]c3ccc(C4CCN(CC(=O)N(C)C)CC4)cc3c2C(C)C)cn2cnnc12 [Example 12, 2-(4-(3-isopropyl-2-(8-methyl-[1,2,4]triazolo[4,3-a]pyridin-6-yl)-1H-indol-5-yl)piperidin-1-yl)-N,N-dimethylacetamide]
- IC50 [1]: 1.5 nM
- IC50 [2]: 1900 nM
- IC50 [3]: 6.9 nM
